Results as given in US20210180095A1 (SHELL OIL COMPANY, priority 2017, published 2021).

Assays:
[1] = target: T1, P. thermopropionicum HmfF (Pelotomaculum thermopropionicum, UniProt A5D4Z9); conditions: substrate specificity
Method: Subsequently, HmfF was purified and assayed under anaerobic conditions. […] All subsequent assays were performed at 50° C.

[2] = system: P. thermopropionicum HmfF H297F variant; test: Reconstituted holo-PtHmfF decarboxylation assay (FIG. 7), H297F variant; format: biochemical, Pelotomaculum thermopropionicum; conditions: 1 mM substrate
Method: (§1) Mutagenesis primers were designed using the QuikChange® Primer Design Program (http://www.genomics.agilent.com/primerDesignProgram.jsp). PCR was performed using Phusion polymerase (NEB). Template was removed by DpnI (NEB) digest and the PCR product transformed into E. coli NEB5-alpha. Once the presence of the desired mutation was confirmed by DNA sequencing, the plasmid was transformed into E. coli BL21(DE3). The three variants transformed into E. coli BL21(DE3) includes one with a mutation of H297N, a second with H297F, and a third of R305Q.
(§2) Protein was expressed in BL21(DE3) grown at 37° C./180 rpm in LB broth supplemented with 50 μg/ml ampicillin At mid-log phase cells were induced with 0.25 mM IPTG and grown overnight at 15° C./180 rpm and then harvested by centrifugation (4° C., 7000 g for 10 minutes). Cell pellets were resuspended in buffer A (200 mM KCl, 1 mM MnCl2, 50 mM Tris pH 7.5) supplemented with DNase, RNase, lysozyme (Sigma) and Complete EDTA-free protease inhibitor cocktail (Roche). Cells were lysed using a French press at 1500 psi and the lysate incubated at 50° C. for 30 minutes to precipitate host proteins. The lysate was clarified by centrifugation at 125,000 g for 90 minutes. […]

[3] = system: P. thermopropionicum HmfF wild-type (WT); test: Reconstituted holo-PtHmfF decarboxylation assay (FIG. 7), wild-type; format: biochemical, Pelotomaculum thermopropionicum; conditions: 1 mM substrate; for observed kcat (decarboxylation activity): pH6, 50° C., anaerobic
Method: Reconstitution and Assays were performed anaerobically within a 100% N2-atmosphere glove box (Belle Technology, UK).
Holo-PtHmfF (e.g., an enzyme with its cofactors) was obtained by reconstituting single expressed HmfF with reduced prFMN under anaerobic conditions as described previously for the UbiD from E. coli in Marshall, S. A., Fisher, K., Ni Cheallaigh, A., White, M. D., Payne, K. A., Parker, D. A., Rigby, S. E., and Leys, D. (2017) Oxidative Maturation and Structural Characterization of Prenylated FMN Binding by UbiD, a Decarboxylase Involved in Bacterial Ubiquinone Biosynthesis. The Journal of biological chemistry 292, 4623-4637. In general, a reaction consisting of 1 mM FMN, 2 mM DMAP (Sigma), 50 μM Fre reductase and 50 μM UbiX in buffer A was started by the addition of 5 mM NADH. Following incubation, the reaction mixture was filtered through 10 k MWCO centrifugal concentrator to remove UbiX and Fre proteins. The filtrate containing the prFMN product was used to reconstitute anaerobic apo-HmfF (e.g., an enzyme without its cofactors) in a 2:1 molar ratio, with excess cofactor being removed using a PD25 desalting column (GE Healthcare). Use of holo-PtHmfF ensures the activity observed in the enzymatic activity assay below is minimally impacted by the presence or absence of cofactors.
Assays were performed by UV-vis spectroscopy using a Cary 50 Bio spectrophotometer (Varian).

[4] = system: P. thermopropionicum HmfF R305Q variant; test: Reconstituted holo-PtHmfF decarboxylation assay (FIG. 7), R305Q variant; format: biochemical, Pelotomaculum thermopropionicum; conditions: 1 mM substrate
Method: as §1, §2

G. kaustophilus HmfF = test: HmfF carboxylation reactions assayed by HPLC; format: biochemical, Geobacillus kaustophilus; conditions: 50 mM furoic acid, 3 M ammonium bicarbonate, 50° C. overnight
Method: (§3) […] The sample was centrifuged at 16100 g to remove precipitate and […] added to 980 μl 50% v/v H2O/acetonitrile. Sample analysis was performed using an Agilent 1260 Infinity Series HPLC equipped with a UV detector. The stationary phase was a Kinetex […] C18 100A column, 250×4.6 mm The mobile phase was acetonitrile/water (50/50) with 0.1% TFA at a flow rate of 1 ml/min, and unless otherwise stated detection was performed at a wavelength of 265 nm.

[5] = target: T1, P. thermopropionicum HmfF; test: HmfF carboxylation reactions assayed by HPLC; format: biochemical; conditions: 50 mM furoic acid, 3 M ammonium bicarbonate, 50° C. overnight
Method: as §3

[6] = Effect of pH, temperature and oxygen on HmfF decarboxylation activity (UV-vis)

O=C(O)c1ccoc1C(=O)O [2,3-furandicarboxylic acid]
decarboxylation by purified P. thermopropionicum HmfF [1]: no decarboxylation detected

O=C(O)c1ccc(C(=O)O)s1 [2,5-thiophenedicarboxylic acid]
decarboxylation by purified P. thermopropionicum HmfF [1]: no decarboxylation detected

O=C(O)c1cccc(C(=O)O)n1 [2,6-pyridinedicarboxylic acid]
decarboxylation by purified P. thermopropionicum HmfF [1]: no decarboxylation detected

O=C(O)c1ccc(CO)o1 [5-hydroxymethyl-2-furoic acid]
decarboxylation by purified P. thermopropionicum HmfF [1]: no decarboxylation detected

O=C(O)c1ccc([N+](=O)[O-])o1 [5-nitro-2-furoic acid]
decarboxylation by purified P. thermopropionicum HmfF [1]: no decarboxylation detected

O=C(O)c1ccc(C(=O)O)o1 [FDCA, 2,5-furandicarboxylic acid]
decarboxylation by purified P. thermopropionicum HmfF [1]: capable of decarboxylating | decarboxylation activity [2]: did not exhibit any measurable decarboxylation activity | observed kcat (decarboxylation activity) [3]: greater than 4 kcat/s | decarboxylation activity [4]: did not exhibit any measurable decarboxylation activity

O=C(O)c1ccc(C(=O)O)[nH]1 [PDCA, 2,5-pyrrol-dicarboxylic acid]
decarboxylation activity [2]: did not exhibit any measurable decarboxylation activity | decarboxylation activity relative to the activity for FDCA [3]: about 2.5% | observed kcat (decarboxylation activity) [3]: less than 0.1 kcat/s | decarboxylation activity [4]: did not exhibit any measurable decarboxylation activity

O=C(O)c1ccco1 [furoic acid]
decarboxylation by purified P. thermopropionicum HmfF [1]: could not further decarboxylate | carboxylation of furoic acid to FDCA (HPLC peak) (G. kaustophilus HmfF): co-migrates with an FDCA standard | carboxylation of furoic acid to FDCA (HPLC peak) [5]: co-migrates with an FDCA standard

O=C(O)c1cccc(C(=O)O)c1 [isophthalic acid]
decarboxylation by purified P. thermopropionicum HmfF [1]: no decarboxylation detected

O=C(O)/C=C/C=C/C(=O)O [muconic acid]
decarboxylation by purified P. thermopropionicum HmfF [1]: no decarboxylation detected

O=C(O)c1ccc(C(=O)O)cc1 [terephthalic acid]
decarboxylation by purified P. thermopropionicum HmfF [1]: no decarboxylation detected

B1: P. thermopropionicum HmfF: HmfF enzyme (2,5-furandicarboxylic acid decarboxylase) of SEQ ID NO:1 from the thermophilic bacterium Pelotomaculum thermopropionicum (protein, listed as Pelotomaculum thermopropionicum)
chain: MSHSLREWLAFLEGKGKLKRVRKEVDPVFEIAALGKQADGICSLLFERVKGYAVPVVTGLAGDRELFAAAMSVPVEGMLEKLAAAVENPVPCRLVSPDGAPVKECIIRENIDLLKMLPIPTHHAGDAGPYITAAILIARDPDSGVRNVSIHRLQVTGPDRLGILILPRHLWHFFGKAERAGRPLEIALAIGVHPAVLLASQATTRLGVDELEIASALLPQPLELVKCETVDVEVPAGAEIVIEGKILPGVREVEGPFGEYPRYYGPAAPRPVVEVTAVTHRRQPVYHTIIPASREHLLLGGIAREAVLLQTVRQAVPTVKNVHLTPGGSCRYHAVISIEKKHEGEAKNAIFAAFTSSSEVKHVVVVDHEINIFDPEEVEWAVATRCQAGRDVFIVKDAMGNRLDPSSRDGVSDKMGIDATIPLNLPGERFERISIPGLDKIKLADYLE
activation energy ([6]; Arrhenius plot of the 25° C.-50° C. data points): 19.3 kcal/mol | temperature maximum of enzyme activity ([6]; FDCA decarboxylation, anaerobic): ~60 °C
